Results: patent publication US11459315B2, “Modulators of methyl modifying enzymes, compositions and uses thereof” (Constellation Pharmaceuticals, Inc., priority 2017, dated 2022)
Read-outs that look alike come from different tables or passages of the source.

Key:
PRC2 containing wt EZH2 = PRC2 containing wt EZH2 (Homo sapiens (Human), UniProt Q15910); assay: EZH2 biochemical assay (IC50), 3H-SAM incorporation into biotinylated H3 peptide
Method: EZH2 biochemical assay (IC50): Compound potencies were assessed through incorporation of ^3H-SAM into a biotinylated H3 peptide. Specifically, 30 pM PRC2 containing wt EZH2 (pentameric complex prepared in-house) was pre-incubated with 450 nM SAM, 450 nM ^3H-SAM, 2 μM H3K27me3 activating peptide (H2N-[…](Kme3)[…]-amide) and compounds (as 10 point duplicate dose response titrations in DMSO, final assay 0.8% DMSO (v/v)) for 3-5 h in 50 mM Tris (pH 8.5), 1 mM DTT, 0.07 mM Brij-35, 0.1% BSA, and 0.8% DMSO in a total volume of 12.5 μl. Reaction was initiated with biotinylated H3 substrate peptide (H2N-[…](Kme1)[…]-NTPEGBiot) as a 2 μM stock in 12.5 μl of buffer and allowed to react at room temperature for 18-22 h. Quenching was accomplished by addition of 20 μl of STOP solution (50 mM Tris (pH 8.5), 200 mM EDTA, 2 mM SAH). 35 μl of the quenched solution was transferred to streptavidin coated FlashPlates (PerkinElmer), incubated 1-2 h, washed, and read in a TopCount Reader (PerkinElmer). IC50s were calculated in Genedata Screener using non-linear least square four parameter fits, where the four parameters were IC50, Hill slope, pre-transitional baseline (0% INH), and post-transitional baseline (100% INH).
IC50 values are reported as follows: “A” indicates an IC50 value of less than 0.5 nM; “B” indicates an IC50 value of 0.5 nM to 5 nM; “C” indicates an IC50 value of greater than 5 nM for each enzyme; and “ND” is not determined.

[1] = test system: H3K27me3 mark in HeLa cells (EZH2); assay: H3K27me3 Alpha Hela Assay (AlphaLISA); type: cell-based; settings: HeLa cells, 72 hrs, read-out: EZH2 Cell H3K27me3 Alpha HeLa (EC50 K27me3)
Method: H3K27me3 Alpha Hela Assay (AlphaLISA). Ten different doses of each test compound (in a series of 3-fold dilutions) were plated in duplicate 384-well tissue culture treated plates (Catalog #6007680; Perkin Elmer, Waltham, Mass.). Hela cells grown in culture were trypsinized and counted using a Countess® cell counter (Catalog #C10281; Life Technologies, Grand Island, N.Y.). Cell were diluted to 67,000 cells per mL in 10% DMEM (Catalog #10569-010 Life Technologies, Grand Island, N.Y.) and 15 μL (1,000 cells) were plated into each well using the Biotek MicroFlo™ Select Dispenser (BioTek Instruments, Inc. Vermont, USA),) of the 384-well plate. Plates were incubated at 37° C./5% CO2 for 72 hrs. One of the duplicate plates was processed for HeLa assay and the other for viability.
5 μL of Cell-Histone Lysis buffer (1×) (Catalog #AL009F1 Perkin Elmer; Waltham, Mass.) per well was added to the plate processed for AlphaLISA and the plate was incubated at RT for 30 minutes on a plate shaker with low speed (Model #4625-Q Thermo Scientific; Waltham, Mass.). Then, 10 μL per well Histone Extraction buffer (catalog #AL009F2; Perkin Elmer; Waltham, Mass.) was added and the plate further incubated at RT for 20 min on plate shaker with low speed. Next, 10 μL of 5× mix of anti-K27me3 acceptor beads plus Biotinylated anti-Histone H3 (C-ter) Antibody (diluted to 3 nM final) (Catalog #AL118 Perkin Elmer; Waltham, Mass.) was added in each well. Dilution of the acceptor beads and anti-Histone H3 was done in 1× Histone Detection buffer (Catalog #AL009F3 Perkin Elmer; Waltham, Mass.) which was produced by diluting the 10× stock provided. The plate was sealed with an aluminum plate sealer and incubated at 23° C. for 60 min. Next, 10 μL 5× solution of Streptavidin Donor beads were added (Catalog #6760002 Perkin Elmer; Waltham, Mass.) (20 μg/mL final in 1× Histone Detection Buffer), =plate was sealed with Aluminum plate sealer and incubated at 23° C. for 30 min. The plates were then read using an EnVision-Alpha Reader (model #2104 Perkin Elmer; Waltham, Mass.).
Data from both assays was analyzed using Genedata (Basel, Switzerland). Data files were imported to Genedata and assay conditions were specified. A unique Analysis ID was created and the data files analysed to measure dose-dependent inhibition of H3K27me3 mark and cell viability respectively. Readout of DMSO wells were used to normalize the data. Resulting curves were fitted using Smart fit application (Genedata; Basel, Switzerland). The data was checked for quality, validated and integrated in excel format using Stardrop (Optibruim, Cambridge, UK).
EC50 values are reported as follows: “A” indicates an EC50 value of less than 10 nM; “B” indicates an EC50 value of 10 nM to 100 nM; “C” indicates an EC50 value of greater than 100 nM; and “ND” is not determined.

[2] = 30 pM PRC2 containing wt EZH2; 3-5 h pre-incubation; read-out: EZH2 (IC50)
[3] = EZH2 (IC50), 30 pM PRC2 containing wt EZH2; 3-5 h pre-incubation
[4] = read-out: EZH2 (IC50); 30 pM PRC2 containing wt EZH2; 3-5 h pre-incubation

PRC2 containing wt EZH2, sequence (Q15910 whole entry): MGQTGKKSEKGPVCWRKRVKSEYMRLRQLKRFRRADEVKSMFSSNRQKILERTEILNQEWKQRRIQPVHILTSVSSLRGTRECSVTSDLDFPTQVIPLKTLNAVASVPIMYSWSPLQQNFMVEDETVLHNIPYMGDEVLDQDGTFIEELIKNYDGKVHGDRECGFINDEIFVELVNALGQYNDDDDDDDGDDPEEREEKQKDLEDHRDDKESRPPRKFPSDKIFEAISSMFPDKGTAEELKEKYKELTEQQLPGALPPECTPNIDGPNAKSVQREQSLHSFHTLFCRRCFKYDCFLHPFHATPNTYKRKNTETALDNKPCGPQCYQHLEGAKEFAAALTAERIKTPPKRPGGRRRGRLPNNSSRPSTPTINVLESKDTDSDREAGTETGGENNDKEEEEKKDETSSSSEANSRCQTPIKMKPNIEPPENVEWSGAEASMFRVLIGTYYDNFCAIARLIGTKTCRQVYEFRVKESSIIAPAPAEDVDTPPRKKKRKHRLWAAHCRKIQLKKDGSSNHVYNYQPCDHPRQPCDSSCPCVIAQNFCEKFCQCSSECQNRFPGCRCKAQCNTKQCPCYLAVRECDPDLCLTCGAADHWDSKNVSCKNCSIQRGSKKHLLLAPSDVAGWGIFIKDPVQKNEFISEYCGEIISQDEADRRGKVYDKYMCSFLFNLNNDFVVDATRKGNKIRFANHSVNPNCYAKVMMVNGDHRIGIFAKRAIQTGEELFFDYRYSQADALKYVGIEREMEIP
PRC2 containing wt EZH2, sequence (O75530 whole entry partner): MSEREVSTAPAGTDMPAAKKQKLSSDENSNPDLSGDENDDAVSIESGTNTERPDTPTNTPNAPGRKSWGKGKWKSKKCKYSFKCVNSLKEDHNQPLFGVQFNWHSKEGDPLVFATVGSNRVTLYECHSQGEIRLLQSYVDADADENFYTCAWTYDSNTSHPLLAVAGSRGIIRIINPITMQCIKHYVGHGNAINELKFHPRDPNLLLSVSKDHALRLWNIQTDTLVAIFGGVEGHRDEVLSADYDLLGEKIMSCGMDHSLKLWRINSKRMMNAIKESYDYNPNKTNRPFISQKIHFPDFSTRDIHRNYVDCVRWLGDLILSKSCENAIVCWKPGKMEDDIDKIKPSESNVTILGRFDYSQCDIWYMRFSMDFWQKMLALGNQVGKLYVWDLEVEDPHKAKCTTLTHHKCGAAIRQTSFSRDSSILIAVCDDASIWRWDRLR
PRC2 containing wt EZH2, sequence (Q15022 whole entry partner): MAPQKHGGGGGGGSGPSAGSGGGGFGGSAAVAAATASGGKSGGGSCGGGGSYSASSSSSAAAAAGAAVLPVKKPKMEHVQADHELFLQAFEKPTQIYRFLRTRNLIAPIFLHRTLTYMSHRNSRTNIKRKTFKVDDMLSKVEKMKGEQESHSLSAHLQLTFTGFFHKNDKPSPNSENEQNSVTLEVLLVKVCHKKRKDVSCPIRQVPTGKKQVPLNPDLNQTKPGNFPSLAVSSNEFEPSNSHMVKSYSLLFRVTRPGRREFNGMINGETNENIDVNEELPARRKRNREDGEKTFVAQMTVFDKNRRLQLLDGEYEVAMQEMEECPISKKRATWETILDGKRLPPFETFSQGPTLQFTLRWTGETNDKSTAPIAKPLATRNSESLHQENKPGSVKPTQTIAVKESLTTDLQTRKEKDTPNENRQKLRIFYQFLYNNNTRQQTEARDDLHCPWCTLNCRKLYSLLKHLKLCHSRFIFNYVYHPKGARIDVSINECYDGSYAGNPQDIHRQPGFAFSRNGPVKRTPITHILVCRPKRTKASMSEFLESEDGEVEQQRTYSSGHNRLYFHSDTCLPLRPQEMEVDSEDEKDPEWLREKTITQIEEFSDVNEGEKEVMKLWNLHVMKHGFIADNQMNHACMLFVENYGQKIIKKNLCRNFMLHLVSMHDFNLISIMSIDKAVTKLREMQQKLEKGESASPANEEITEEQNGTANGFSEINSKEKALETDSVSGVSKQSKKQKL
PRC2 containing wt EZH2, sequence (Q09028 whole entry partner): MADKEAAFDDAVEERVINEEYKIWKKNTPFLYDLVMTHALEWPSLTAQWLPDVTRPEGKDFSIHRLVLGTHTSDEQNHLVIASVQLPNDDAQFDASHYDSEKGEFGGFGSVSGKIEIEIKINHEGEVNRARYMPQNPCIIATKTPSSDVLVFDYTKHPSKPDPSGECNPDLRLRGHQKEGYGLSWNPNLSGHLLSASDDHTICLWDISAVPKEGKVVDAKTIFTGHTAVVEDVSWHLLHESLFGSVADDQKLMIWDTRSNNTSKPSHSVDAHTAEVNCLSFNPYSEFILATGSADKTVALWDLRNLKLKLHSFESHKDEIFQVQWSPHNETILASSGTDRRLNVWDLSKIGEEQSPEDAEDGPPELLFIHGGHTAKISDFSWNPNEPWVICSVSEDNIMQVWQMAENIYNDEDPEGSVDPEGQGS
PRC2 containing wt EZH2, sequence (Q6ZN18 whole entry partner): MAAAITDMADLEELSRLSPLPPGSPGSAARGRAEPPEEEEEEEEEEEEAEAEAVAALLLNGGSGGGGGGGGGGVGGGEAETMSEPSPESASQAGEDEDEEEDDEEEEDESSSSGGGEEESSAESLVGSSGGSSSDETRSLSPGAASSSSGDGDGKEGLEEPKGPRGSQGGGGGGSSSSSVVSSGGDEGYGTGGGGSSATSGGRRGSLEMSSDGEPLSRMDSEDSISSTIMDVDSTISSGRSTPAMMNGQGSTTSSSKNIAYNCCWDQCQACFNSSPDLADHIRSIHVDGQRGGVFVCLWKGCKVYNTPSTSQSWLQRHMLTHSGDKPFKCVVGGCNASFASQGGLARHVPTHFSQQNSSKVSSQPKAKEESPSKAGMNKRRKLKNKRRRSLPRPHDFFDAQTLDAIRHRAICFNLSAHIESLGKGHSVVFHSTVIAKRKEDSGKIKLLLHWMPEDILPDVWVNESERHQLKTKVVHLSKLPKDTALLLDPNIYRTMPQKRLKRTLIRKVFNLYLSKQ

CSc1cc(C)[nH]c(=O)c1CNC(=O)c1c(C)n([C@H](C)C2CCC(N3CC(OC4CC4)C3)CC2)c2ncc(F)cc12 (single isomer, unassigned) [28 (isomer 2)]
IC50 (PRC2 containing wt EZH2; [2]): < 0.5 nM
EC50 [1]: 10 to 100 nM

CSc1cc(C)[nH]c(=O)c1CNC(=O)c1c(C)n([C@H](C)C2CCC(O)CC2)c2ncccc12 (single isomer, unassigned) [36 (isomer 1)]
IC50 (PRC2 containing wt EZH2; [3]): < 0.5 nM
EC50 ([1]; Homo sapiens, HeLa, 72 h): 10 to 100 nM

CSc1cc(C)[nH]c(=O)c1CNC(=O)c1c(C)n([C@H](C)C2CCC(O)CC2)c2ncccc12 (single isomer, unassigned) [36 (isomer 2)]
IC50 (PRC2 containing wt EZH2; [4]): < 0.5 nM
EC50 [1]: < 10 nM

COC1CCC([C@@H](C)n2c(C)c(C(=O)NCc3c(SC)cc(C)[nH]c3=O)c3cncnc32)CC1 (single isomer, unassigned) [41 (isomer 1)]
IC50 (PRC2 containing wt EZH2; [3]): < 0.5 nM
EC50 ([1]; Homo sapiens, HeLa, 72 h): < 10 nM

COC1CCC([C@@H](C)n2c(C)c(C(=O)NCc3c(SC)cc(C)[nH]c3=O)c3cncnc32)CC1 (single isomer, unassigned) [41 (isomer 2)]
IC50 (PRC2 containing wt EZH2; [4]): < 0.5 nM
EC50 [1]: < 10 nM

CSc1cc(C)[nH]c(=O)c1CNC(=O)c1c(C)n([C@H](C)C2CCC(O)CC2)c2cc(F)ccc12 (single isomer, unassigned) [44 (isomer 1)]
IC50 (PRC2 containing wt EZH2; [3]): < 0.5 nM
EC50 ([1]; Homo sapiens, HeLa, 72 h): < 10 nM

CSc1cc(C)[nH]c(=O)c1CNC(=O)c1c(C)n([C@H](C)C2CCC(O)CC2)c2cc(F)ccc12 (single isomer, unassigned) [44 (isomer 2)]
IC50 (PRC2 containing wt EZH2; [4]): < 0.5 nM
EC50 [1]: < 10 nM

CSc1cc(C)[nH]c(=O)c1CNC(=O)c1c(C)n([C@H](C)C2CCC(N(C)C)CC2)c2ncccc12 (single isomer, unassigned) [51 (isomer 1)]
IC50 (PRC2 containing wt EZH2; [2]): < 0.5 nM
EC50 [1]: 10 to 100 nM

CSc1cc(C)[nH]c(=O)c1CNC(=O)c1c(C)n([C@H](C)C2CCC(N(C)C)CC2)c2ncccc12 (single isomer, unassigned) [51 (isomer 2)]
IC50 (PRC2 containing wt EZH2; [2]): < 0.5 nM
EC50 [1]: > 100 nM

CSc1cc(C)[nH]c(=O)c1CNC(=O)c1c(C)n([C@H](C)C2CCC(O)CC2)c2ncc(Cl)cc12 (single isomer, unassigned) [53 (isomer 1)]
IC50 (PRC2 containing wt EZH2; [3]): < 0.5 nM
EC50 ([1]; Homo sapiens, HeLa, 72 h): 10 to 100 nM

CSc1cc(C)[nH]c(=O)c1CNC(=O)c1c(C)n([C@H](C)C2CCC(O)CC2)c2ncc(Cl)cc12 (single isomer, unassigned) [53 (isomer 2)]
IC50 (PRC2 containing wt EZH2; [4]): < 0.5 nM
EC50 [1]: < 10 nM

CSc1cc(C)[nH]c(=O)c1CNC(=O)c1c(C)n([C@H](C)C2CCC(OC(F)F)CC2)c2ccccc12 (single isomer, unassigned) [60 (isomer 1)]
IC50 (PRC2 containing wt EZH2; [3]): < 0.5 nM
EC50 ([1]; Homo sapiens, HeLa, 72 h): < 10 nM

CSc1cc(C)[nH]c(=O)c1CNC(=O)c1c(C)n([C@H](C)C2CCC(OC(F)F)CC2)c2ccccc12 (single isomer, unassigned) [60 (isomer 2)]
IC50 (PRC2 containing wt EZH2; [4]): < 0.5 nM
EC50 [1]: < 10 nM

CSc1cc(C)[nH]c(=O)c1CNC(=O)c1c(C)n([C@H](C)C2CCC(NC3COC3)CC2)c2ncccc12 (single isomer, unassigned) [62 (isomer 1)]
IC50 (PRC2 containing wt EZH2; [2]): < 0.5 nM
EC50 [1]: 10 to 100 nM

CSc1cc(C)[nH]c(=O)c1CNC(=O)c1c(C)n([C@H](C)C2CCC(NC3COC3)CC2)c2ncccc12 (single isomer, unassigned) [62 (isomer 2)]
IC50 (PRC2 containing wt EZH2; [2]): 0.5 to 5 nM
EC50 ([1]; listed as 62): > 100 nM
